Drawing on US10562897B2, “Substituted 3,4-dihydro-2H-pyrido[1,2-a]pyrazine-1,6-diones as gamma secretase modulators” (Janssen Pharmaceutica NV, priority 2014, dated 2020), this text covers response vs control in vivo and melting point for five molecules.

Molecules are shown by their SMILES. Read-outs that look alike come from different tables or passages of the source.

A word on the melting point: it is the temperature, or range, at which the solid turns liquid.

The test system of one data set is Aβ42. The experiment in a line: In vivo efficacy: brain level of soluble Aβ42, non-transgenic rodents, single oral dose 30 mg/kg, 4 h, MSD electrochemiluminescence, untreated control = 100. Details: species or system mouse. Particulars: Mus musculus, read-out: Aβ42 (% vs Ctrl) _Mean. From the text: (§1) To determine whether acute administration of an Aβ42 lowering agent would reduce Aβ42 levels in vivo, non-transgenic rodents, e.g. mice or rats were used. Animals treated with the Aβ42 lowering agent were examined and compared to those untreated or treated with vehicle and brain levels of soluble Aβ42, Aβ40, Aβ38, and Aβ37 were quantitated by Meso Scale Discovery's (MSD) electrochemiluminescence detection technology. Treatment periods varied from hours (h) to days and were adjusted based on the results of the Aβ42 lowering once a time course of onset of effect could be established.
(§2) A typical protocol for measuring Aβ42 lowering in vivo is shown but it is only one of many variations that could be used to optimize the levels of detectable Aβ. For example, Aβ42 lowering compounds were formulated in 20% of Captisol® (a sulfobutyl ether of β-cyclodextrin) in water or 20% hydroxypropyl β cyclodextrin. The Aβ42 lowering agents were administered as a single oral dose or by any acceptable route of administration to overnight fasted animals. After 4 h, the animals were sacrificed and Aβ42 levels were analysed.
(§3) Blood was collected by decapitation and exsanguinations in EDTA-treated collection tubes. Blood was centrifuged at 1900 g for 10 minutes (min) at 4° C. and the plasma recovered and flash frozen for later analysis. The brain was removed from the cranium and hindbrain. The cerebellum was removed and the left and right hemisphere were separated. The left hemisphere was stored at −18° C. for quantitative analysis of test compound levels. The right hemisphere was rinsed with phosphate-buffered saline (PBS) buffer and immediately frozen on dry ice and stored at −80° C. until homogenization for biochemical assays.
(§4) Mouse brains from non-transgenic animals were resuspended in 8 volumes of 0.4% DEA (diethylamine)/50 mM NaCl containing protease inhibitors (Roche-11873580001 or 04693159001) per gram of tissue, e.g. for 0.158 g brain, add 1.264 ml of 0.4% DEA. All samples were homogenized in the FastPrep-24 system (MP Biomedicals) using lysing matrix D (MPBio #6913-100) at 6 m/s for 20 seconds. Homogenates were centrifuged at 20800×g for 5 min and supernatants collected. Supernatants were centrifuged at 221.300×g for 50 min. The resulting high speed supernatants were then transferred to fresh eppendorf tubes. Nine parts of supernatant were neutralized with 1 part 0.5 M Tris-HCl pH 6.8 and used to quantify Aβ.
(§5) To quantify the amount of Aβ42, Aβ40, Aβ38, and Aβ37 in the soluble fraction of the brain homogenates, simultaneous specific detection of Aβ42, Aβ40, Aβ38, and Aβ37 was performed using MSD's electro-chemiluminescence multiplex detection technology. In this assay purified monoclonal antibodies specific for Abeta37 (JRD/Aβ37/3), Abeta38 (J&JPRD/Aβ38/5), Abeta40 (JRF/cAβ40/28), and Abeta42 (JRF/cAβ42/26) were coated on MSD 4-plex plates. Briefly, the standards (a dilution of synthetic Aβ42, Aβ40, Aβ38, and Aβ37) were prepared in 1.5 ml Eppendorf tube in Ultraculture, with final concentrations ranging from 10000 to 0.3 pg/m. The samples and standards were co-incubated with Sulfo-tag labelled JRF/rAß/2 antibody to the N-terminus of Aβ as detector antibody. 50 μl of conjugate/sample or conjugate/standards mixtures were then added to the antibody-coated plate. The plate was allowed to incubate overnight at 4° C. in order to allow formation of the antibody-amyloid complex. Following this incubation and subsequent wash steps the assay was finished by adding read buffer according to the manufacturer's instructions (Meso Scale Discovery, Gaitherburg, Md.).
(§6) The SULFO-TAG emits light upon electrochemical stimulation initiated at the electrode. MSD Sector instrument SI6000 was used for signal read-out.
In this model a Aß42 lowering compared to untreated animals would be advantageous, in particular a Aß42 lowering with at least 10%, more in particular a Aß42 lowering with at least 20%. […]

In the next data set the test system is Aβ38. The experiment in a line: In vivo efficacy: brain level of soluble Aβ38, non-transgenic rodents, single oral dose 30 mg/kg, 4 h, MSD electrochemiluminescence, untreated control = 100. Details: species or system mouse. The following applies: Mus musculus, read-out: Aβ38 (% vs Ctrl) _Mean.
Text: To determine whether acute administration of an Aβ38 increasing agents would increase Aβ38 levels in vivo, non-transgenic rodents, e.g. mice or rats were used. Animals treated with the Aβ38 increasing agents were examined and compared to those untreated or treated with vehicle and brain levels of soluble Aβ42, Aβ40, Aβ38, and Aβ37 were quantitated by MSD electrochemiluminescence detection technology.
Treatment periods varied from hours (h) to days and were adjusted based on the results of the Aβ38 increase once a time course of onset of effect could be established.
A typical protocol for measuring Aβ38 increase in vivo is shown but it is only one of many variations that could be used to optimize the levels of detectable Aβ. For example, Aβ38 increasing agents were formulated in 20% of Captisol® (a sulfobutyl ether of β-cyclodextrin) in water or 20% hydroxypropyl β cyclodextrin. The Aβ38 increasing agents were administered as a single oral dose or by any acceptable route of administration to overnight fasted animals. After 4 h, the animals were sacrificed and Aβ38 levels were analysed.
as §3, §4
as §5, with “[…].” for “pg/m.”
as §6
In this model a Aß38 increase compared to untreated animals would be advantageous, in particular a Aß38 increase with at least 10%, more in particular a Aß38 increase with at least 20%. […]

The next data set has as its system Aβ40. Description: In vivo efficacy: brain level of soluble Aβ40, non-transgenic rodents, single oral dose 30 mg/kg, 4 h, MSD electrochemiluminescence, untreated control = 100. Also on record: species or system mouse. The following applies: Mus musculus, read-out: Aβ40 (% vs Ctrl) _Mean.
Text: as §1, §2, §3, §4, §5
The SULFO-TAG emits light upon electrochemical stimulation initiated at the electrode. MSD Sector instrument SI6000 was used for signal read-out. […]

`Cc1cn(-c2ccc3n(c2=O)CCN(Cc2coc4ccc(C(F)(F)F)cc24)C3=O)cn1` [Compound 64] displayed a melting point of 211 °C. The response vs control in vivo at 30 mg/kg with Aβ42 (sc, 30 mpk sc) is 108%. In addition, the response vs control in vivo at 30 mg/kg in the data set on Aβ38 (sc, 30 mpk sc) came out at 155%. The response vs control in vivo at 30 mg/kg in the data set with Aβ40 (sc, 30 mpk sc (footnote *)) was 132%.

As for `Cc1cn(-c2ccc3n(c2=O)C[C@@H](C)N(Cc2coc4cc(F)c(C(F)(F)F)cc24)C3=O)cn1` [Compound 84], the melting point was 222 °C. In the data set with Aβ42 (sc, 30 mpk sc), the response vs control in vivo at 30 mg/kg is 25%. Besides, the response vs control in vivo at 30 mg/kg in the data set on Aβ38 (sc, 30 mpk sc) was determined as 237%. In the data set with Aβ40 (sc, 30 mpk sc (footnote *)), the response vs control in vivo at 30 mg/kg was found to be 21%.

Molecule `Cc1cn(-c2ccc3n(c2=O)C[C@@H](C)N(Cc2coc4cc(C(F)(F)F)ccc24)C3=O)cn1` [Compound 72] displayed a melting point of 215 °C. Further, in the data set on Aβ42 (po, dose 30 mg/kg oral dosing), the response vs control in vivo at 30 mg/kg is 64%. The response vs control in vivo at 30 mg/kg in the data set with Aβ38 (po, dose 30 mg/kg oral dosing) amounted to 130%. The response vs control in vivo at 30 mg/kg in the data set with Aβ40 (po, dose 30 mg/kg oral dosing) worked out at 88%.

With `Cc1cn(-c2ccc3n(c2=O)C[C@@H](C)N(Cc2cc4cc(Br)ccc4o2)C3=O)cn1` [Compound 13], the melting point stood at 159 °C. In the data set with Aβ42 (po, dose 30 mg/kg oral dosing), the response vs control in vivo at 30 mg/kg worked out at 77%. In addition, in the data set with Aβ38 (po, dose 30 mg/kg oral dosing), the response vs control in vivo at 30 mg/kg worked out at 117%. In addition, in the data set on Aβ40 (po, dose 30 mg/kg oral dosing), the response vs control in vivo at 30 mg/kg was determined as 101%.

The molecule `Cc1cn(-c2ccc3n(c2=O)C[C@@H](C)N(Cc2coc4ccc(C(F)(F)F)cc24)C3=O)cn1` [Compound 73] came in with a melting point of 187 °C. In the data set on Aβ42 (sc, 30 mpk sc), the response vs control in vivo at 30 mg/kg worked out at 97%. Moreover, the response vs control in vivo at 30 mg/kg in the data set with Aβ38 (sc, 30 mpk sc) is 110%. The response vs control in vivo at 30 mg/kg in the data set with Aβ40 (sc, 30 mpk sc (footnote *)) turned out to be 114%.
